Data: patent US20230321253A1, “BIFUNCTIONAL COMPOUNDS AND PHARMACEUTICAL USES THEREOF” (RISEN (SUZHOU) PHARMA TECH CO., LTD., priority 2022, published 2023)

Tests used:
KRAS-G12D protein = biological target: T1, KRAS-G12D protein (Homo sapiens, UniProt P01116, G12D); assay: KRAS-G12D protein degradation study in Aspc-1 cells (western blot); assay type: cell-based; settings: for inhibition at 0.05 µM: ASPC1, 24 h, Aspc-1 cells treated with 50 nM compound, 24 hours, read-out: Rate of degradation (KRAS^G12D); for DC50: Aspc-1 cells, read-out: DC50 of test compound-induced KRAS^G12D protein degradation
T1 construct: host or cells: Aspc-1 cells
T1 sequence (P01116 1-188 isoform P01116-2 G12D): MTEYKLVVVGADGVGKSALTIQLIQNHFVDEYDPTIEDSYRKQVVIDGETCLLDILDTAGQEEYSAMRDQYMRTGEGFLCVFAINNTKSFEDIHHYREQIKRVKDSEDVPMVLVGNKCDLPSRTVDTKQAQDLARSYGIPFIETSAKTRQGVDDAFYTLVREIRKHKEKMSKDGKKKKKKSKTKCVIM
Outline: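 AsPC-1 cells were treated with compound for 24 h at 37° C (0.1% DMSO final), then lysed; KRAS levels measured by western blot. Degradation % = 1 − (KRAS/GAPDH, compound) ÷ (KRAS/GAPDH, DMSO), ×100; DC50 derived from concentration curves.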

Aspc-1 cells = assay: Cell proliferation study in Aspc-1 cells (Cell Titer Glo); assay type: cell-based; settings: Homo sapiens, ASPC1, 72 hours, read-out: IC50, inhibitory effect on cellular proliferation
Method: Aspc-1 (Cobioer, CBP60546) cells were grown in RPMI 1640 (Gibco, 61870127) supplemented with 10% fetal bovine serum (Gibco, 10099141), 1% penicillin-streptomycin (Gibco, 15070-063). Aspc-1 cells in exponential growth phase were seeded into 96-well plate (Corning, 3599) at density of 4×10^3/well. Cells were cultured overnight at 37° C. with 5% CO2. On the next day, cells were treated with test compound at various concentrations for 72 hours in 37° C., 5% CO2 incubator (final DMSO concentration was 0.1%). After treatment, 100 μL Cell Tier Glo (Promega, G7573) was added to every well of the cell plates and the plates were incubated at room temperature (RT) for 10 minutes. Cell growth status was measured with Cell Tier Glo (Promega, G7573) following the manufacturer's instructions. The inhibition curve was obtained with GraphPad 7.0 software using four-parameter equation.

| SMILES | inhibition at 0.05 µM (KRAS-G12D protein) | DC50 (KRAS-G12D protein) | IC50 (Aspc-1 cells) |
| --- | --- | --- | --- |
| C#Cc1c(F)ccc2cc(O)cc(-c3ncc4c(N5CC6CCC(C5)N6)nc(OCC5(CN6CCC7(CC6)CC(N6CCN(c8ccc9c(c8)C(=O)N(C8CCC(=O)NC8=O)C9=O)CC6)C7)CC5)nc4c3F)c12 (stereo not shown) [Compound 154] | > 60% | < 10 nM | < 100 nM |
| C#Cc1c(F)ccc2cc(O)cc(-c3ncc4c(N5CC6CCC(C5)N6)nc(OCC5(CN6CCCN(C(=O)CN7CCC(c8ccc9c(C%10CCC(=O)NC%10=O)nn(C)c9c8)CC7)CC6)CC5)nc4c3F)c12 (stereo not shown) [Compound 155] | > 60% | 11 to 50 nM | < 100 nM |
| CCc1c(F)ccc2cc(O)cc(-c3ncc4c(N5CC6CCC(C5)N6)nc(OCC5(CN6CCC(C(=O)N7CCC8(CC7)CC(N7CCC(c9ccc%10c(C%11CCC(=O)NC%11=O)nn(C)c%10c9)CC7)C8)CC6)CC5)nc4c3F)c12 (stereo not shown) [Compound 156] | 31 to 60% | < 10 nM | < 100 nM |
| C#Cc1c(F)ccc2cc(O)cc(-c3ncc4c(N5CC6CCC(C5)N6)nc(OCC5(CN6CCC7(CC6)CC(N6CCC(c8cccc9c8CN(C8CCC(=O)NC8=O)C9=O)CC6)C7)CC5)nc4c3F)c12 (stereo not shown) [Compound 157] | 11 to 30% | > 200 nM | 101 to 1000 nM |
| C#Cc1c(F)ccc2cc(O)cc(-c3ncc4c(N5CC6CCC(C5)N6)nc(OCC5(CN6CCC7(CC6)CC(N6CCC(c8ccc9c%10c(cccc8%10)C(=O)N9C8CCC(=O)NC8=O)CC6)C7)CC5)nc4c3F)c12 (stereo not shown) [Compound 158] | > 60% | < 10 nM | < 100 nM |
| CCc1c(F)ccc2cc(O)cc(-c3ncc4c(N5CC6CCC(C5)N6)nc(OCC5(CN6CCC7(CC6)CC(N6CCC(c8ccc9c(C%10CCC(=O)NC%10=O)nn(C)c9c8)CC6)C7)CC5)nc4c3F)c12 (stereo not shown) [Compound 160] | > 60% | < 10 nM | < 100 nM |
| C#Cc1c(F)ccc2cc(O)cc(-c3ncc4c(N5CC6CCC(C5)N6)nc(OCC5(CN6CCC7(CC6)CC(N6CCC(c8ccc9c(c8)n(C)c(=O)n9C8CCC(=O)NC8=O)CC6)C7)CC5)nc4c3F)c12 (stereo not shown) [Compound 164] | > 60% | < 10 nM | < 100 nM |
| C#Cc1c(F)ccc2cc(O)cc(-c3ncc4c(N5CC6CCC(C5)N6)nc(OCC5(CN6CCC(CN7CCC(c8ccc9c%10c(cccc8%10)C(=O)N9C8CCC(=O)NC8=O)CC7)CC6)CC5)nc4c3F)c12 (stereo not shown) [Compound 168] | > 60% | – | < 100 nM |
| C#Cc1c(F)ccc2cc(O)cc(-c3ncc4c(N5CC6CCC(C5)N6)nc(OCC5(CN6CC7(CC(N8CCC(c9ccc%10c(C%11CCC(=O)NC%11=O)nn(C)c%10c9)CC8)C7)C6)CC5)nc4c3F)c12 (stereo not shown) [Compound 169] | > 60% | – | < 100 nM |
